Assay results as given in patent US12721844B2, “Chronic kidney disease treatment or prevention method” (Japan Tobacco Inc., priority 2019, dated 2026).

Experiments:
glucose-loaded SD rats [1] = assay: OGTT (Oral Glucose Tolerance Test), Test Example 3; type: in vivo, rat; conditions: 3 mg/kg oral, 16 hours before glucose load; compared to vehicle
Method: (§1) OGTT (Oral Glucose Tolerance Test)
Vehicle (0.5% methylcellulose solution), or Compound 1, Compound A, or Compound B (3 mg/kg each) suspended in a 0.5% methylcellulose solution was orally administered in 5 mL/kg to an about 4-hour-fasted male SD rat (8-week old, Nihon Charles River K.K., 5 cases for each group).
Statistical analyses were based on Dunnett's multiple group test. The significance level was two-sided 5%.

male SDT fatty rats = assay: Assessment of renal protective effect (GFR in SDT fatty rats), Test Example 5; type: in vivo, rat; conditions: 2 mg/kg oral once a day, 16 weeks; vs vehicle group of SDT fatty rats
Method: Assessment of Renal Protective Effect
Vehicle (0.5% methyl cellulose solution), Compound 1 (2 mg/kg), or dapagliflozin (0.3 mg/kg) was orally administered once a day to male SDT fatty rats (7-week old, CLEA Japan, Inc.); and as a normal control, vehicle was orally administered once a day to male SD rats (7-week old, CLEA Japan, Inc.). 16 Weeks after the administration, GFR (mL/min/100 g B.W.) was measured with a transdermal GFR monitor (MediBeacon). For statistical analysis, Student's test was conducted between the vehicle-administered group of SD rats and the vehicle-administered group of SDT fatty rats. Dunnett's multiple test was conducted for the Compound 1 and dapagliflozin groups to the vehicle group of SDT fatty rats. The significance level was two-sided 5%.

[2] = system: 5/6-kidney-removed rats (male Wistar); assay: Assessment of renal protective effect 2 (5/6-kidney-removed rats), Test Example 6; type: in vivo, rat; conditions: 2 mg/kg/day mixed with feed, vs vehicle-administered group
Method: Assessment of Renal Protective Effect 2
7-Week old male Wistar rats (Japan SLC, Inc.) were treated by removing 2/3 of the left kidney under isoflurane anesthesia and then removing the whole right kidney one week later to prepare 5/6-kidney-removed rats. Compound 1 (2 mg/kg/day) mixed with feed was orally administered to the rats from the age of 9 weeks. As a normal control, male Wistar rats at the same age were set as a sham group. […] For statistical analysis, Student's test was conducted between the vehicle-administered group and the Compound 1-administered group. […] For statistical analysis, Student's test or Aspin-Welch was conducted.

human SGLT1 = target: T1, human SGLT1 (Homo sapiens, UniProt P13866); assay: Assessment of SGLT1 inhibitory activity (14C-AMG uptake in human SGLT1-stably-expressing CHO-K1 cell line); type: cell-based
T1 sequence (P13866 1-664): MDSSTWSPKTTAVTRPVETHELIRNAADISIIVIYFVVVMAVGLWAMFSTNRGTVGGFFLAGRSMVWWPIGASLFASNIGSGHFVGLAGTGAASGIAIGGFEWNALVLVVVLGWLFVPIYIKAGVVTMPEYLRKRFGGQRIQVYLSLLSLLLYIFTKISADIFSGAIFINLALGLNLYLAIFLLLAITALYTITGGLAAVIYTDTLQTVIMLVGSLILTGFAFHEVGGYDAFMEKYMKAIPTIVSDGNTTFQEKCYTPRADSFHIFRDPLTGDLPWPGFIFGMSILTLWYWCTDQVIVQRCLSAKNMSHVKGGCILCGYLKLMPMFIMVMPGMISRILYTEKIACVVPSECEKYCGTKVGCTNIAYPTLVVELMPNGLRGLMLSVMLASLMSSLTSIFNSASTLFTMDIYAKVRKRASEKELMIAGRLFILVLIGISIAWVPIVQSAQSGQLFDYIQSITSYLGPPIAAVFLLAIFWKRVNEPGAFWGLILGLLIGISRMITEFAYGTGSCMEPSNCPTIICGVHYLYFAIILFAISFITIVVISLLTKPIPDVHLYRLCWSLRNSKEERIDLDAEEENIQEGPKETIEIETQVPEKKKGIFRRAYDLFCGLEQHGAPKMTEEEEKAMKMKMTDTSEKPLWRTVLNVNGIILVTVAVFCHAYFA
Method: Assessment of SGLT1 Inhibitory Activity
SGLT1 inhibitory activities of test compounds (IC50 values) were calculated based on the amount of intracellular uptake of labelled […] (^14C-AMG) transported by SGLT1.
1) Formation of Human SGLT1-Expressing Plasmid
A DNA fragment containing human SGLT1 was amplified by PCR (Polymerase Chain Reaction) using pCMV6-hSGLT1 (OriGene) as a template. In the human SGLT1, NheI recognition and cleavage sequence was added to the upstream of Kozac consensus sequence derived from a vector, and a stop codon, TAG, and SalI recognition and cleavage sequence were added to the immediate downstream of the protein-translating region of human SGLT1. […]
Human SGLT1-stably-expressing cell lines were seeded at 5×10^4 cells/well on BioCoat™ Poly-D-Lysine 96 well plate with Lid (Becton, Dickinson and Company) and cultured at 37° C. under 5% CO2 overnight. […] In the assessment for the uptake ability of ^14C-AMG, the total amount of the cell lysate was transferred to OptiPlate 96 (Perkin-E1mer) with 100 μL/well of MicroScint-40 (Perkin-E1mer) dispensed and ^14C of CPM was measured with TOPCOUNT NXT (Perkin-E1mer).
Data was calculated by deducting the average value of CPM for blank well from the average value of CPM for each well treated. […]

glucose-loaded SD rats [3] = assay: OGTT (Oral Glucose Tolerance Test), Test Example 2; type: in vivo, rat; conditions: 1, 3, or 10 mg/kg oral, 16 hours before glucose load; compared to vehicle
Method: as §1
Vehicle (0.5% methylcellulose solution) or Compound 1 (1, 3, or 10 mg/kg) suspended in a 0.5% methylcellulose solution was orally administered in 5 mL/kg to an about 4-hour-fasted male SD rat (8-week old, Nihon Charles River K.K., 6 cases for each group). […] Statistical analyses were based on Steel's multiple test. The significance level was two-sided 5%.

SMILES: C[C@H]1C(=O)NC[C@@H]1C(=O)Nc1cc(-c2cc(F)cc(OC(C)(C)C)c2)n(C(F)(F)F)n1 [Example 1, (3R,4R)-N-(5-(3-(tert-butoxy)-5-fluorophenyl)-1-(trifluoromethyl)-1H-pyrazol-3-yl)-4-methyl-5-oxopyrrolidine-3-carboxamide]
- blood glucose level after the glucose load (Δ AUC to 120 minutes, % of Vehicle) (glucose-loaded SD rats [1]): significantly reduced the blood glucose level
- GFR (mL/min/100 g B.W.) (male SDT fatty rats): inhibited the increase of GFR
- protein quantities in the urine (mg/mgCr) ([2]; 16, 30, and 69 days): lower than those of the vehicle-administered group
- creatinine clearance (mL/min) [2]: significantly higher than that of the vehicle-administered group
- urea nitrogen levels (mg/dL) [2]: significantly lower than those of the vehicle-administered group
- SGLT1 inhibitory activity (human SGLT1; qualitative statement): confirmed to have the SGLT1 inhibitory activity
- blood glucose level after the glucose load (Δ AUC to 120 minutes, % of Vehicle) (glucose-loaded SD rats [3]): significantly reduced the blood glucose level

SMILES: C[C@H]1C(=O)NC[C@@H]1C(=O)Nc1cc(-c2cccc(OC(F)(F)F)c2)n(-c2ccc(Cl)nn2)n1 [Example 10]
- inhibition at 0.3 µM (human SGLT1; CHO-K1, at 0.3 μM, read-out: hSGLT1 inhibition): 45%
